In ChEMBL document CHEMBL1151575, “J-104,123, a novel and orally-active inhibitor of squalene synthase: Stereoselective synthesis and cholesterol lowering effects in dogs” (Bioorg Med Chem Lett, 1996):

Assays:
[1] = Area under the curve for compound was evaluated in dog at a dose of 20 mg/kg.; format: ADME, organism-based, Canis lupus familiaris; set-up: dose 20 mg/kg; settings: in vivo
[2] = target: T1, Squalene synthase (Homo sapiens, UniProt P37268); experiment: Inhibitory activity against squalene synthase (SQS) obtained from HepG2 cells; format: cell-based
T1 sequence (P37268 whole entry): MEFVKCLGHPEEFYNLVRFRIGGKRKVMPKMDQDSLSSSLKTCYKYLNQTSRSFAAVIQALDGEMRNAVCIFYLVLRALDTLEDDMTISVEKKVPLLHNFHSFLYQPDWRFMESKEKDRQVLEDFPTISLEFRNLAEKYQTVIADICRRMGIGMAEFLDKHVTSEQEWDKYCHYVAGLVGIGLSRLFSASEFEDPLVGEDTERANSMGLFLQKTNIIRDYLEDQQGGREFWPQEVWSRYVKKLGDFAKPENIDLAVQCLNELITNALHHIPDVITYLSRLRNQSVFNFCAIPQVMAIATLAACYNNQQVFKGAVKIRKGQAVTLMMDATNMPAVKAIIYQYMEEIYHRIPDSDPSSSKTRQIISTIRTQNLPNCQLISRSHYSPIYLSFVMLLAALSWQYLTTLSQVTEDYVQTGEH

[3] = Area under the curve for compound was evaluated in dog at a dose of 10 mg/kg.; format: ADME, organism-based, Canis lupus familiaris; set-up: dose 10 mg/kg; settings: in vivo

Row | AUC [1] | IC50 [2] | AUC [3] | Compound
1 | 54000 ng·h/mL | 2.5 nM | – | C[C@@H](CC(=O)O)CC(=O)N[C@@H](C)[C@H](/C=C/c1ccc2ccccc2c1)Cc1ccc(Cl)c(Cl)c1
2 | – | 3.9 nM | 9900 ng·h/mL | C[C@@H](CC(=O)O)CC(=O)N[C@@H](C)[C@@H](Cc1ccc(Cl)c(Cl)c1)c1ccc(-c2ccccc2)c(F)c1
3 | 900 ng·h/mL | – | – | C[C@H](NC(=O)C[C@@H](CC(=O)O)C(=O)O)[C@@H](Cc1ccc(Cl)c(Cl)c1)c1ccc(-c2ccccc2)c(F)c1
